# Data taken from patent US20070128217A1 (priority 2003, published 2007).
# Experiments:
# [1] = tested on: antibodies in sera from SARS patients (sera 1a, 1b, 2, 6, 37, 62, London, SARS-yellow, SARS-green); format: binding, human; parameters: Binding of serum 6 to linear peptides of protein X1 of SARS-CoV Urbani / Binding of serum 37 to linear peptides of protein X1 of SARS-CoV Urbani / Binding of serum 6 to looped/cyclic peptide (PEPSCAN-ELISA) / Binding of serum 37 to looped/cyclic peptide (PEPSCAN-ELISA) / Binding of serum 37 to looped/cyclic peptides of protein X1 of SARS-CoV Urbani / Binding of serum 6 to linear peptides of protein X2 / Binding of serum 37 to linear peptides of protein X2 / Binding of serum 37 to looped/cyclic peptides of protein X2 of SARS-CoV Urbani / Binding of serum 6 to linear peptides of protein M of SARS-CoV Urbani / Binding of serum 37 to linear peptides of protein M of SARS-CoV Urbani / Binding of serum 6 to looped/cyclic peptides of protein M of SARS-CoV Urbani / Binding of serum 37 to looped/cyclic peptides of protein M of SARS-CoV Urbani / Binding of serum 6 to linear peptides of protein X3 of SARS-CoV Urbani / Binding of serum 37 to linear peptides of protein X3 of SARS-CoV Urbani / Binding of serum 37 to looped/cyclic peptides of protein X3 of SARS-CoV Urbani / Binding of serum 6 to linear peptides of protein X4 of SARS-CoV Urbani / Binding of serum 37 to linear peptides of protein X4 of SARS-CoV Urbani / Binding of serum 37 to looped/cyclic peptides of protein X4 of SARS-CoV Urbani / Binding of serum 6 to linear peptides of protein X5 of SARS-CoV Urbani / Binding of serum 37 to linear peptides of protein X5 of SARS-CoV Urbani / Binding of serum 37 to looped/cyclic peptides of protein X5 of SARS-CoV Urbani / Binding of serum 6 to linear peptides of protein N of SARS-CoV Urbani / Binding of serum 37 to linear peptides of protein N of SARS-CoV Urbani / Binding of serum 6 to linear peptide (PEPSCAN-ELISA) / Binding of serum 1a to looped/cyclic peptides of protein N of SARS-CoV Urbani / Binding of serum 1b to looped/cyclic peptides of protein N of SARS-CoV Urbani / Binding of serum 2 to looped/cyclic peptides of protein N of SARS-CoV Urbani / Binding of serum 6 to looped/cyclic peptides of protein N of SARS-CoV Urbani / Binding of serum 37 to looped/cyclic peptides of protein N of SARS-CoV Urbani / Binding of serum 62 to looped/cyclic peptides of protein N of SARS-CoV Urbani / Binding of serum London to looped/cyclic peptides of protein N of SARS-CoV Urbani / Binding of serum SARS-green to looped/cyclic peptides of protein N of SARS-CoV Urbani: unit not given here
# [2] = tested on: control sera (pooled serum of ten healthy LUMC hospital workers; commercial negative donor pooled serum from the Dutch bloodbank); format: binding, human; parameters: Binding of Control serum LUMC to linear peptides / Binding of Control serum Blood-bank to linear peptides / Binding of Control serum LUMC to looped peptides / Binding of Control Serum Blood-Bank to Looped peptides / Binding of Control serum LUMC to linear peptides of the protein M of SARS-CoV Urbani / Binding of Control serum Blood-bank to linear peptides of the protein M of SARS-CoV Urbani / Binding of Control serum LUMC to looped peptides of the protein M of SARS-CoV Urbani / Binding of Control Serum Blood-Bank to Looped peptides of the protein M of SARS-CoV Urbani: unit not given here
# [3] = tested on: rabbit serum obtained by immunizing a rabbit with the SARS-CoV strain Frankfurt 1; format: binding; parameters: Binding of a rabbit serum to linear peptides / Binding of a rabbit serum to looped peptides / Rabbit serum linear peptides / Rabbit serum looped peptides / Binding of a rabbit serum to linear peptides of protein N of SARS-CoV Urbani (Rabbit serum linear peptides) / Binding of a rabbit serum to looped/cyclic peptides of protein N of SARS-CoV Urbani (Rabbit serum looped peptides): unit not given here
# [4] = tested on: recombinant human anti-SARS-CoV antibody 03-018; format: binding; parameters: Binding of antibody 03-018 to linear peptides of the N protein of SARS-CoV Urbani / Binding of antibody 03-018 to looped/cyclic peptides of the N protein of SARS-CoV Urbani: unit not given here
Sequence,Binding of serum 1a to linear peptides of protein N of SARS-CoV Urbani [1],Binding of serum 1a to looped/cyclic peptides of protein N of SARS-CoV Urbani [1],Binding of serum 1b to linear peptides of protein N of SARS-CoV Urbani [1],Binding of serum 1b to looped/cyclic peptides of protein N of SARS-CoV Urbani [1],Binding of serum 2 to linear peptides of protein N of SARS-CoV Urbani [1],Binding of serum 2 to looped/cyclic peptides of protein N of SARS-CoV Urbani [1],Binding of serum 6 to linear peptides of protein N of SARS-CoV Urbani [1],Binding of serum 6 to looped/cyclic peptides of protein N of SARS-CoV Urbani [1],Binding of serum 37 to linear peptides of protein N of SARS-CoV Urbani [1],Binding of serum 37 to looped/cyclic peptides of protein N of SARS-CoV Urbani [1],Binding of serum 62 to linear peptides of protein N of SARS-CoV Urbani [1],Binding of serum 62 to looped/cyclic peptides of protein N of SARS-CoV Urbani [1],Binding of serum London to linear peptides of protein N of SARS-CoV Urbani [1],Binding of serum London to looped/cyclic peptides of protein N of SARS-CoV Urbani [1],Binding of serum SARS-green to linear peptides of protein N of SARS-CoV Urbani [1],Binding of serum SARS-green to looped/cyclic peptides of protein N of SARS-CoV Urbani [1],Binding of serum SARS-yellow to linear peptides of protein N of SARS-CoV Urbani [1],Binding of serum SARS-yellow to looped/cyclic peptides of protein N of SARS-CoV Urbani [1],Binding of a rabbit serum to linear peptides of protein N of SARS-CoV Urbani (Rabbit serum linear peptides) [3],Binding of a rabbit serum to looped/cyclic peptides of protein N of SARS-CoV Urbani (Rabbit serum looped peptides) [3],further results
PKDHIGTRNPNNNAA,0.3,0.4,0.1,0.3,0.3,0.3,0.2,0.3,0.8,0.5,0.9,0.3,0.5,0.3,0.4,0.2,0.8,0.2,0.2,0.2,Binding of Control Serum Blood-Bank to Looped peptides [2]: 0.5; Binding of Control serum Blood-bank to linear peptides [2]: 0.8; Binding of Control serum LUMC to linear peptides [2]: 0.8; Binding of Control serum LUMC to looped peptides [2]: 0.6; Binding of antibody 03-018 to linear peptides of the N protein of SARS-CoV Urbani [4]: 0.1; Binding of antibody 03-018 to looped/cyclic peptides of the N protein of SARS-CoV Urbani [4]: 0.2
PNNTASWFTALTQHG,0.2,0.4,0.1,0.2,0.2,0.3,0.2,0.2,0.7,0.6,0.7,0.5,0.5,0.3,0.3,0.7,0.4,0.6,0.1,0.4,Binding of Control Serum Blood-Bank to Looped peptides [2]: 0.7; Binding of Control serum Blood-bank to linear peptides [2]: 0.5; Binding of Control serum LUMC to linear peptides [2]: 0.7; Binding of Control serum LUMC to looped peptides [2]: 0.7; Binding of antibody 03-018 to linear peptides of the N protein of SARS-CoV Urbani [4]: 0.1; Binding of antibody 03-018 to looped/cyclic peptides of the N protein of SARS-CoV Urbani [4]: 0.3
PPTEPKKDKKKKTDE,0.2,0.2,0.1,0.1,2.0,0.2,0.2,0.1,0.6,0.4,0.7,0.2,0.5,0.2,0.3,0.0,0.6,0.2,0.2,0.2,Control Serum Blood-Bank Looped peptides [2]: 0.4; Control serum Blood-bank linear peptides [2]: 0.6; Control serum LUMC linear peptides [2]: 0.7; Control serum LUMC looped peptides [2]: 0.3; Binding of antibody 03-018 to linear peptides of the N protein of SARS-CoV Urbani [4]: 0.1; Binding of antibody 03-018 to looped/cyclic peptides of the N protein of SARS-CoV Urbani [4]: 0.2
PQGLPNNTASWFTAL,0.2,0.5,0.1,0.3,0.2,0.6,0.1,0.3,0.7,1.0,0.7,0.9,0.4,0.6,0.2,0.4,0.5,0.9,0.1,0.6,Binding of Control Serum Blood-Bank to Looped peptides [2]: 0.9; Binding of Control serum Blood-bank to linear peptides [2]: 0.7; Binding of Control serum LUMC to linear peptides [2]: 0.7; Binding of Control serum LUMC to looped peptides [2]: 0.9; Binding of antibody 03-018 to linear peptides of the N protein of SARS-CoV Urbani [4]: 0.1; Binding of antibody 03-018 to looped/cyclic peptides of the N protein of SARS-CoV Urbani [4]: 0.3
